Results: patent US20100069393A1, “METHOD OF TREATMENT AND AGENTS USEFUL FOR SAME” (PRANA BIOTECHNOLOGY LIMITED, priority 2006, published 2010)

What was measured:
[1] = Neurotoxicity assay: MTS viability of primary cortical neuronal cultures; assay type: cell-based, mouse; details: BL6Jx129sv, mouse, primary cortical neuronal cultures, Neuronal cells, read-out: Cytotoxicity (% viable at 1 and 10 uM); for viability at 4 days, 1 uM: test compound 1 uM; for viability at 4 days, 10 uM: test compound 10 uM
[2] = Mice plasma concentration; assay type: in vivo; details: for Mice plasma concentration: presence in plasma at one or two time points (between 30 min and 4 h)
[3] = Cytotoxicity: viability of M17 cells; details: human, M17 neuroblastoma cells, Cytotoxicity (% viable at 1 and 10 uM); for viability at 1 uM: test compound 1 uM; for viability at 10 uM: test compound 10 uM
[4] = In vivo toxicity, visual observations; details: 30 mg/kg, number of days

Row | Mice plasma concentration [2] | Structure (SMILES) | viability at 4 days, 1 uM [1] [%] | viability at 4 days, 10 uM [1] [%] | viability at 1 uM [3] [%] | viability at 10 uM [3] [%] | Toxicity at 30 mg/kg [4] | Mice plasma concentration (single dose) ([2]; single dose, one or two time points (between 30 min and 4 h))
1 | Up to 403 ng/mL | CCNCc1ccc2c(Cl)cc(Cl)c(O)c2n1.Cl | 87 | 56 | 78.3 | 44 | 10 days, none | –
2 | – | O=c1c2c(Cl)cc(Cl)c(O)c2ncn1CCN1CCCC1 | 104 | 91 | 104 | 101 | 14 days, 1 of 4 death | Up to 520 ng/mL (single dose)
3 | Up to 45.2 ng/mL | O=c1c2c(Cl)cc(Cl)c(O)c2ncn1N1CCOCC1 | 105 | 70 | 95.9 | 80.9 | 10 days, none | –
4 | Up to 112.4 ng/mL | Cn1c(-n2cnc3c(O)c(Cl)cc(Cl)c3c2=O)nc2ccccc21 | 105 | 97 | 107 | 94.9 | 10 days, none | –
5 | Up to 2641 ng/mL | Br.CCCn1cnc2c(O)c(Cl)cc(Cl)c2c1=O | 102 | 83 | 107 | 98.8 | 10 days, none | –
6 | Up to 128.4 ng/mL | O=c1c2cccc(O)c2ncn1Cc1cccc(Cn2cnc3c(O)cccc3c2=O)n1 | – | – | 117 | 106 | 10 days, none | –
7 | Up to 409 ng/ml ng/mL | CC(C)c1cnc2c(O)cccn2c1=O | – | – | 99.7 | 45.6 | 10 days, none | –
8 | Up to 642.6 ng/mL | Br.CN(C)Cc1nc2c(O)c(Cl)cc(Cl)c2c(=O)[nH]1 | – | – | 97.4 | 100 | 10 days, none | –
9 | Up to 690 ng/ml ng/mL | CCCc1cnc2c(O)cccn2c1=O | – | – | 79.1 | 45.2 | 10 days, none | –
10 | Up to 27,598 ng/ml ng/mL | CCCCNC(=O)C1=CN=C2C(O)=C(I)C=CN2C1 | – | – | 85.3 | 63.4 | 10 days, none | –
11 | Up to 510.4 ng/mL | Br.CNCc1nc2c(O)c(Cl)cc(Cl)c2c(=O)n1C | – | – | 96 | 90.6 | 10 days, none | –
12 | Up to 1593 ng/ml ng/mL | CCCn1cnc2c(O)c(I)ccc2c1=S | – | – | 89.9 | 86.2 | 10 days, none | –
13 | Up to 400 ng/ml ng/mL | CCn1cnc2c(O)c(I)ccc2c1=S | – | – | 85.7 | 43 | 10 days, none, 1/4 mild signs | –
14 | Up to 6 ng/mL | O=c1c2cccc(O)c2ncn1-c1ccc(Cl)cn1 | – | – | 107 | 122 | 10 days, none | –
15 | Up to 22.2 ng/mL | O=C(NCc1ccccc1)c1cnc2c(O)cccn2c1=O | – | – | 92.7 | 97.3 | 10 days, none | –
16 | Up to 4023.4 ng/mL | O=c1c2c(Cl)cc(Cl)c(O)c2ncn1Cc1cccnc1 | – | – | 106 | 95.4 | 10 days, none | –

Row | Mice plasma concentration [2] | Structure (SMILES) | viability at 4 days, 1 uM [1] [%] | viability at 4 days, 10 uM [1] [%] | viability at 1 uM [3] [%] | viability at 10 uM [3] [%] | Toxicity at 30 mg/kg [4] | Mice plasma concentration (single dose) ([2]; single dose, one or two time points (between 30 min and 4 h))
17 | Up to 2181.1 ng/mL | O=c1c2c(Cl)cc(Cl)c(O)c2ncn1Cc1ccncc1 | – | – | 105 | 90.4 | 10 days, none | –
18 | Up to 13214.8 ng/mL | Cn1ccnc1Cn1cnc2c(O)c(Cl)cc(Cl)c2c1=O | – | – | 108 | 97.6 | 10 days, none | –
19 | Up to 1477.4 ng/mL | O=c1c2c(Cl)cc(Cl)c(O)c2ncn1-c1cc[nH]n1 | – | – | 126 | 115 | 10 days, none | –
20 | Up to 126 ng/mL | O=c1c2c(Cl)cc(Cl)c(O)c2ncn1-c1ccc2[nH]ncc2c1 | – | – | 96.2 | 88.9 | 10 days, none | –
21 | Up to 1465.4 ng/mL | O=c1c2c(Cl)cc(Cl)c(O)c2ncn1Cc1ccn2ccnc2c1 | – | – | 105 | 105 | 10 days, none | –
22 | Up to 382.5 ng/mL | Br.CN1CCCC1Cn1cnc2c(O)c(Cl)cc(Cl)c2c1=O (stereo not shown) | – | – | 107 | 93.9 | 10 days, none | –
23 | Up to 441.4 ng/mL | O=c1c2c(Cl)cc(Cl)c(O)c2ncn1Cc1nccs1 | – | – | 96 | 99.8 | 10 days, none | –
24 | Up to 17008 ng/mL | O=C(O)CCCn1cnc2c(O)c(Cl)cc(Cl)c2c1=O | – | – | 110 | 103 | 10 days, none | –
25 | Up to 2796 ng/mL | O=c1c2c(Cl)cc(Cl)c(O)c2ncn1Cc1nc2ccccc2[nH]1 | – | – | 102 | 100 | 10 days, none | –
26 | Up to 166.1 ng/mL | O=c1c2c(Cl)cc(Cl)c(O)c2ncn1Cc1nc2ccccc2s1 | – | – | 111 | 80.9 | 10 days, none | –
27 | Up to 7107 ng/mL | Cc1noc(C)c1-n1cnc2c(O)c(Cl)cc(Cl)c2c1=O | – | – | 106 | 94.2 | 10 days, none | –
28 | Up to 1639.8 ng/mL | O=c1c2c(Cl)cc(Cl)c(O)c2ncn1CCNCc1ccncc1 | – | – | 103 | 105 | 10 days, none | –
29 | Up to 1166.6 ng/mL | CN(C)Cc1nc2c(O)c(Cl)cc(Cl)c2c(=O)n1CC1CC1.Cl | – | – | 94.4 | 74.5 | 10 days, none | –
30 | Up to 975.9 ng/mL | CCn1c(CN(C)C)nc2c(O)c(Cl)cc(Cl)c2c1=O.Cl | – | – | 99.2 | 102 | 10 days, none | –
31 | Up to 492.1 ng/mL | Br.CN(C)Cc1nc2c(O)c(Cl)cc(Cl)c2c(=O)n1C | – | – | 104 | 111 | 10 days, 1 of 4 mild signs | –

Row | Structure (SMILES) | Mice plasma concentration [2] | viability at 4 days, 1 uM [1] [%] | viability at 4 days, 10 uM [1] [%] | viability at 1 uM [3] [%] | viability at 10 uM [3] [%] | Toxicity at 30 mg/kg [4] | Mice plasma concentration (single dose) ([2]; single dose, one or two time points (between 30 min and 4 h))
32 | CCn1cnc2c(O)c(I)cc(Cl)c2c1=O | Up to 1802 ng/mL | – | – | 101 | 50.4 | 10 days, 2/4 deaths | –
33 | O=c1c2c(Cl)cc(Cl)c(O)c2ncn1Cc1cn2ccccc2n1 | Up to 98.3 ng/mL | – | – | 109 | 98.2 | 10 days, none | –
